# Experiment: Clinical trial safety, ALKA, STARTRK-1, STARTRK-2, STARTRK-NG (interim, N=355)
# [1] = may be underestimated, 4.5% had no post-treatment liver function tests
# [2] = patients with at least one post-baseline ECG assessment
# [3] = worsening from baseline, NCI CTCAE v5.0
structure (smiles),measurement,setting,value
"CN1CCN(c2ccc(C(=O)Nc3n[nH]c4ccc(Cc5cc(F)cc(F)c5)cc34)c(NC3CCOCC3)c2)CC1 [Entrectinib, N-[5-(3,5-difluorobenzyl)-1H-indazol-3-yl]-4-(4-methyl-piperazin-1-yl)-2-(tetrahydro-pyran-4-ylamino)-benzamide]",Cognitive impairment: mental status changes,"human, in vivo",2%
same,Discontinuation due to hyperuricemia,"human, in vivo",No patients discontinued
same,Dose interruption due to anemia,"human, in vivo",3.1%
same,Dose interruption due to cognitive disorder,"human, in vivo",2%
same,Dose interruption due to diarrhea,"human, in vivo",2.8%
same,Dose interruption due to dizziness,"human, in vivo",2.5%
same,Dose interruption due to dyspnea,"human, in vivo",2.3%
same,Dose interruption due to fatigue,"human, in vivo",3.7%
same,Dose interruption due to increased blood creatinine,"human, in vivo",4%
same,Dose interruption due to nausea,"human, in vivo",2.3%
same,Dose interruption due to neutropenia,"human, in vivo",2%
same,Dose interruption due to pneumonia,"human, in vivo",2.3%
same,Dose interruption due to pyrexia,"human, in vivo",2.8%
same,Dose interruptions due to adverse reactions,"human, in vivo",46%
same,Dose reduction due to anemia,"human, in vivo",1.7%
same,Dose reduction due to dizziness,"human, in vivo",3.9%
same,Dose reduction due to fatigue,"human, in vivo",2.3%
same,Dose reduction due to increased blood creatinine,"human, in vivo",3.1%
same,Dose reduction due to increased weight,"human, in vivo",1.4%
same,Dose reductions due to adverse reactions,"human, in vivo",29%
same,Entrectinib discontinued due to increased AST or ALT,"human, in vivo",0.8%
same,Grade 3 cognitive adverse reactions,"human, in vivo",4.5%
same,Grade 3 mood disorders,"human, in vivo",0.6%
same,Grade 3 or 4 adverse reactions,"human, in vivo",60%
same,Grade 3 or 4 cognitive disorders,"human, in vivo",4.5%
same,Grade 3 or 4 diarrhea,"human, in vivo",2%
same,Grade 3 or 4 dyspnea,"human, in vivo",6%
same,Grade 3 or 4 fatigue/asthenia,"human, in vivo",5%
same,Grade 3 or 4 hypotension,"human, in vivo",2.8%
same,Grade 3 or 4 hypoxia,"human, in vivo",3.4%
same,Grade 3 or 4 increased weight,"human, in vivo",7%
same,Grade 3 or 4 lung infection,"human, in vivo",5%
same,Grade 3 or 4 pleural effusion,"human, in vivo",3.1%
same,Grade 3 or 4 pulmonary embolism,"human, in vivo",3.4%
same,Grade 3 or 4 syncope,"human, in vivo",2.5%
same,Grade 3 or 4 urinary tract infection,"human, in vivo",2.5%
same,Grade 3 sleep disturbances,"human, in vivo",0.6%
same,Hyperuricemia resolved following urate-lowering medication without interruption or dose reduction,"human, in vivo",73%
same,Incidence of CNS adverse reactions in patients with and without CNS metastases,"human, in vivo",similar
same,Mood disorders: agitation,"human, in vivo",2%
same,Mood disorders: anxiety,"human, in vivo",4.8%
same,Mood disorders: depression,"human, in vivo",2.8%
same,Most common adverse reactions (≥20%),"human, in vivo","fatigue, constipation, dysgeusia, edema, dizziness, diarrhea, nausea, dysesthesia, dyspnea, myalgia, cognitive impairment, increased weight, cough, vomiting, pyrexia, arthralgia and vision disorders"
same,Myocarditis in the absence of CHF,"human, in vivo",0.3%
same,Permanent discontinuation due to an adverse reaction,"human, in vivo",9%
same,Permanent discontinuation due to cardio-respiratory arrest,"human, in vivo",< 1%
same,Permanent discontinuation due to dyspnea,"human, in vivo",< 1%
same,Permanent discontinuation due to fatigue,"human, in vivo",< 1%
same,Permanent discontinuation due to pneumonia,"human, in vivo",< 1%
same,Serious adverse reaction: dyspnea,"human, in vivo",3.7%
same,Serious adverse reaction: pleural effusion,"human, in vivo",3.4%
same,Serious adverse reaction: pneumonia,"human, in vivo",3.9%
same,Serious adverse reaction: pulmonary embolism,"human, in vivo",2.3%
same,Serious adverse reaction: pyrexia,"human, in vivo",2%
same,Serious adverse reaction: respiratory failure,"human, in vivo",2%
same,Serious adverse reaction: sepsis,"human, in vivo",2.5%
same,Serious adverse reactions,"human, in vivo",39%
same,Sleep disturbances: hypersomnia,"human, in vivo",1.1%
same,Sleep disturbances: insomnia,"human, in vivo",7%
same,Sleep disturbances: sleep disorder,"human, in vivo",0.3%
same,Sleep disturbances: somnolence,"human, in vivo",7%
same,"Vision changes, Grade 1","human, in vivo",82%
same,"Vision changes, Grade 2","human, in vivo",14%
same,"Vision changes, Grade 3","human, in vivo",0.8%
same,Vision disorders: blurred vision,"human, in vivo",8.7%
same,Vision disorders: cataract,"human, in vivo",1.1%
same,Vision disorders: diplopia,"human, in vivo",3.1%
same,Vision disorders: photophobia,"human, in vivo",5.1%
same,Vision disorders: photopsia,"human, in vivo",1.3%
same,Vision disorders: visual impairment,"human, in vivo",2%
same,Vision disorders: vitreous floaters,"human, in vivo",1.1%
same,Grade 4 hyperuricemia,including one patient who died due to tumor lysis syndrome,1.7%
same,Grade 3-4 increased ALT,[1],2.8%
same,Grade 3-4 increased AST,[1],2.5%
same,Cognitive impairment symptoms occurred within 3 months of starting entrectinib,of the 96 patients with cognitive impairment,77%
same,QTcF interval >500 ms,[2],0.6%
same,QTcF interval prolongation of >60 ms after starting entrectinib,[2],3.1%
same,"Mood disorders, median time to onset",range: 1 day to 9 months,1 month
same,"Increased ALT, median time to onset",range: 1 day to 9.2 months,2 weeks
same,"Increased AST, median time to onset",range: 1 day to 29.5 months,2 weeks
same,Completed suicide,reported 11 days after treatment had ended,One
same,Grade 4 myocarditis after one dose of entrectinib,resolved after discontinuation and high-dose corticosteroids,One
same,Increased AST or ALT leading to dose reductions,second value of 'respectively',0.8%
same,"Laboratory: Anemia, All Grades",worsening from baseline,67%
same,"Laboratory: Anemia, Grade 3 or 4",worsening from baseline,9%
same,"Laboratory: Hyperkalemia, All Grades",worsening from baseline,25%
same,"Laboratory: Hyperkalemia, Grade 3 or 4",worsening from baseline,1.5%
same,"Laboratory: Hypernatremia, All Grades",worsening from baseline,35%
same,"Laboratory: Hypernatremia, Grade 3 or 4",worsening from baseline,0.9%
same,"Laboratory: Hyperuricemia, All Grades",worsening from baseline,52%
same,"Laboratory: Hyperuricemia, Grade 3 or 4",worsening from baseline,10%
same,"Laboratory: Hypoalbuminemia, All Grades",worsening from baseline,28%
same,"Laboratory: Hypoalbuminemia, Grade 3 or 4",worsening from baseline,2.9%
same,"Laboratory: Hypocalcemia, All Grades",worsening from baseline,34%
same,"Laboratory: Hypocalcemia, Grade 3 or 4",worsening from baseline,1.8%
same,"Laboratory: Hypophosphatemia, All Grades",worsening from baseline,30%
same,"Laboratory: Hypophosphatemia, Grade 3 or 4",worsening from baseline,7%
same,"Laboratory: Increased ALT, All Grades",worsening from baseline,38%
same,"Laboratory: Increased ALT, Grade 3 or 4",worsening from baseline,2.9%
same,"Laboratory: Increased AST, All Grades",worsening from baseline,44%
same,"Laboratory: Increased AST, Grade 3 or 4",worsening from baseline,2.7%
same,"Laboratory: Increased alkaline phosphatase, All Grades",worsening from baseline,25%
same,"Laboratory: Increased alkaline phosphatase, Grade 3 or 4",worsening from baseline,0.9%
same,"Laboratory: Increased amylase, All Grades",worsening from baseline,26%
same,"Laboratory: Increased amylase, Grade 3 or 4",worsening from baseline,5.4%
same,"Laboratory: Increased lipase, All Grades",worsening from baseline,28%
same,"Laboratory: Increased lipase, Grade 3 or 4",worsening from baseline,10%
same,"Laboratory: Lymphopenia, All Grades",worsening from baseline,40%
same,"Laboratory: Lymphopenia, Grade 3 or 4",worsening from baseline,12%
same,"Laboratory: Neutropenia, All Grades",worsening from baseline,28%
same,"Laboratory: Neutropenia, Grade 3 or 4",worsening from baseline,7%
same,"Laboratory: Hyperglycemia, Grade 3 or 4",[3],3.8%
same,"Laboratory: Increased creatinine, All Grades",[3],73%
same,"Laboratory: Increased creatinine, Grade 3 or 4",[3],2.1%

# — patent US20220257592A1, “METHODS OF TREATING CANCER” (HOFFMANN-LA ROCHE INC., priority 2019, published 2022)
